In patent US20220274945A1, “SUBSTITUTED THIOPHENE CARBOXAMIDES AND DERIVATIVES THEREOF AS MICROBICIDES” (Bayer Aktiengesellschaft, priority 2019, published 2022):

Key:
[1] = test system: Xanthomonas campestris pv. campestris; test: In vivo preventive test on Xanthomonas campestris pv. campestris (black rot on cabbage); settings: 31 ppm, cabbage plants sprayed 72 hours before inoculation; evaluated 8 or 10 days after inoculation
Method: The tested active ingredients were prepared by homogenization in a mixture of acetone/Dimethyl sulfoxide/Tween®, and then diluted with water to obtain the desired active material concentration.
The young plants of cabbage were treated by spraying the active ingredient prepared as described above.
Control plants were treated only with an aqueous solution of acetone/Dimethyl sulfoxide/Tween®.
After 72 hours, the plants were contaminated by spraying the leaves with an aqueous bacteria suspension of Xanthomonas campestris pv. campestris. The contaminated cabbage plants were incubated for 8 or 10 days at 27° C. at 95% relative humidity.
The test was evaluated 8 or 10 days after the inoculation. 0% means an efficacy which corresponds to that of the control plants while an efficacy of 100% means that no disease was observed.

[2] = test system: salicylate responsive promoter sequence of the PR1 (pathogenesis-related protein I) gene (AT2G14610); test: Induction of defense gene expression in Arabidopsis thaliana (PR1 promoter-GFP reporter plants); format: in vivo; settings: 300 ppm, sprayed; 3rd day after spraying; mock treated leaves set as 1.00
Method: Arabidopsis thaliana reporter plants containing the coding sequence of a green fluorescent protein (GFP) linked to the salicylate responsive promoter sequence of the PR1 (pathogenesis-related protein I) gene (AT2G14610) were grown for five days and then sprayed with compounds. On the 3rd day after spraying, plant fluorescence was assessed with a MacroFluo instrument from Leica Microsystems (Wetzlar, Germany). Fluorescences were quantified with the Meta-Morph Microscopy Automation & Image Analysis Software (Molecular Devices, Sunnyvale, Calif., United States).
Background fluorescence in mock treated leaves was set as 1.00.

In the case of `O=C(NC1(C(=O)O)CC1)c1cc(Br)c(Br)s1` [CMP1], the efficacy [1] was 10%.

With `O=C(NC1(C(=O)O)CC1)c1sc(Br)c(Br)c1Br` [I.14] the efficacy [1] was “at least 80%”.

Molecule `O=C(O)c1ccccc1O` [Salicylic acid] has a relative fluorescence value [2] of 2.70.
